Patent publication US6737383B1, “Herbicidal oxadiazolidines” (priority 1999, dated 2004)

Legend:
smallflower flatsedge = assay: Test B flood test smallflower flatsedge; format: in vivo, Cyperus difformis
In short: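 Read-out is a visual response score from 0 (no effect) to 10 (complete control), assigned by comparison with untreated controls. Treatment was applied at the 2-leaf stage, and plants stayed in the greenhouse for twelve to sixteen days before scoring.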

blackgrass = assay: Test B pre/postemergence blackgrass; format: in vivo, Alopecurus myosuroides
In short: (§1)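 Herbicidal effect was estimated by eye on a ten-point control scale after plants spent twelve to sixteen days in a greenhouse following soil or foliar treatment. Foliar sprays targeted plants at one to four leaves; all doses were formulated in a non-phytotoxic solvent with surfactant.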

surinam grass = assay: Test B pre/postemergence surinam grass; format: in vivo, Brachiaria decumbens
In short: as §1

bedstraw = assay: Test B pre/postemergence bedstraw; format: in vivo, Galium aparine
In short: as §1

[1] = Preemergence, Rate 62 g/ha, scale of 0 to 10 where 0 is no effect and 10 is complete control
[2] = Preemergence, Rate 250 g/ha, scale of 0 to 10 where 0 is no effect and 10 is complete control
[3] = Preemergence, Rate 500 g/ha, scale of 0 to 10 where 0 is no effect and 10 is complete control
[4] = Rate 62 g/ha, Postemergence, scale 0 to 10 (0 no effect, 10 complete control)
[5] = Rate 125 g/ha, Postemergence, scale of 0 to 10 where 0 is no effect and 10 is complete control
[6] = Rate 250 g/ha, Postemergence, scale of 0 to 10 where 0 is no effect and 10 is complete control
[7] = Rate 500 g/ha, Postemergence, scale 0 to 10, 0 no effect, 10 complete control
[8] = Postemergence, Rate 62 g/ha, scale 0 to 10, 0 is no effect, 10 is complete control
[9] = Postemergence, Rate 250 g/ha, scale 0 to 10, 0 no effect, 10 complete control
[10] = Preemergence, Rate 62 g/ha, scale 0 to 10, 0 is no effect, 10 is complete control
[11] = Preemergence, Rate 125 g/ha, scale 0 to 10 (0 no effect, 10 complete control)
[12] = Preemergence, Rate 500 g/ha, scale 0 (no effect) to 10 (complete control)
[13] = Rate 125 g/ha, Postemergence, scale 0 to 10, 0 no effect, 10 complete control
[14] = Postemergence, Rate 125 g/ha, scale of 0 to 10 where 0 is no effect and 10 is complete control
[15] = Preemergence, Rate 31 g/ha, visual rating, scale 0 to 10 (0 no effect, 10 complete control)
[16] = Preemergence, Rate 62 g/ha, scale 0 to 10 (0 no effect, 10 complete control)
[17] = Preemergence, Rate 125 g/ha, 0 is no effect, 10 is complete control
[18] = Preemergence, Rate 250 g/ha, scale 0 to 10, 0 is no effect, 10 is complete control
[19] = Rate 31 g/ha, Postemergence, scale 0 to 10
[20] = Rate 62 g/ha, Postemergence, scale of 0 to 10 where 0 is no effect and 10 is complete control
[21] = Rate 250 g/ha, Postemergence, scale 0 to 10, 0 is no effect, 10 is complete control

## CC(C)N(C(=O)n1oc(=O)n(CCCN(C)C)c1=O)c1ccc(F)cc1 [Compound 323]
Smallflower flatsedge; Rate 62 g/ha, headed Pre-emergence (flood test species), scale 0 to 10 (0 no effect, 10 complete control)
  S. Flatsedge plant response rating: 0
Smallflower flatsedge; Rate 125 g/ha, Pre-emergence, flood test species, scale 0 to 10 where 0 is no effect and 10 is complete control
  S. Flatsedge plant response rating: 0
Smallflower flatsedge; Rate 250 g/ha, Pre-emergence, flood-test species, scale 0 to 10, 0 is no effect, 10 is complete control
  S. Flatsedge plant response rating: 0
Smallflower flatsedge; Rate 500 g/ha, Pre-emergence, flood test species, scale 0 to 10 (0 no effect, 10 complete control)
  S. Flatsedge plant response rating: 0
blackgrass; [1]
  Blackgrass plant response rating: 0
blackgrass; Preemergence, Rate 125 g/ha
  Blackgrass plant response rating (0 to 10 scale): 0
blackgrass; [2]
  Blackgrass plant response rating: 0
blackgrass; [3]
  Blackgrass plant response rating: 0
blackgrass; [4]
  Blackgrass plant response rating: 0
blackgrass; [5]
  Blackgrass plant response rating: 0
blackgrass; [6]
  Plant response rating, Blackgrass: 0
blackgrass; [7]
  Plant response rating, Blackgrass: 0
Surinam grass; [1]
  B. signalgrass plant response rating: 0
Surinam grass; Preemergence, Rate 125 g/ha
  B. signalgrass plant response rating (0 to 10 scale, 0 is no effect, 10 is complete control): 0
Surinam grass; [2]
  B. signalgrass plant response rating: 0
Surinam grass; [3]
  B. signalgrass plant response rating: 0
Surinam grass; [4]
  B. signalgrass plant response rating: 0
Surinam grass; [5]
  B. signalgrass plant response rating: 0
Surinam grass; [6]
  Plant response rating, B. signalgrass: 0
Surinam grass; [7]
  Plant response rating, B. signalgrass: 0
bedstraw; [1]
  Bedstraw plant response rating: 0
bedstraw; Preemergence, Rate 125 g/ha
  Bedstraw plant response rating (0 to 10 scale): 0
bedstraw; [2]
  Bedstraw plant response rating: 0
bedstraw; [4]
  Bedstraw plant response rating: 0
bedstraw; [5]
  Bedstraw plant response rating: 0

## Cc1ccccc1-n1c(=O)on(C(=O)N(c2ccc(C#N)cc2)C(C)C)c1=O [Compound 51]
Smallflower flatsedge; [8]
  S. Flatsedge plant response rating: 0
Smallflower flatsedge; Rate 125 g/ha, Postemergence section (flood test species), scale 0 to 10, 0 no effect, 10 complete control
  S. Flatsedge plant response rating: 0
Smallflower flatsedge; Rate 500 g/ha, listed under Postemergence (flood test species), scale 0 to 10, 0 no effect, 10 complete control
  S. Flatsedge plant response rating: 0
Smallflower flatsedge; flood test, listed under Postemergence, Rate 250 g/ha, scale 0 to 10, 0 no effect, 10 complete control
  S. Flatsedge plant response rating: 0
blackgrass; [8]
  Blackgrass plant response rating: 0
blackgrass; [9]
  Blackgrass plant response rating: 0
blackgrass; [10]
  Plant response rating, Blackgrass: 0
blackgrass; [11]
  Plant response rating, Blackgrass: 0
blackgrass; [2]
  Plant response rating, Blackgrass: 0
blackgrass; [12]
  Blackgrass plant response rating: 0
blackgrass; [13]
  Blackgrass plant response rating: 0
blackgrass; [7]
  Blackgrass plant response rating: 0
Surinam grass; [8]
  B. signalgrass plant response rating: 0
Surinam grass; [9]
  B. signalgrass plant response rating: 0
Surinam grass; [10]
  Plant response rating, B. signalgrass: 0
Surinam grass; [11]
  Plant response rating, B. signalgrass: 0
Surinam grass; [2]
  Plant response rating, B. signalgrass: 0
Surinam grass; [12]
  B. signalgrass plant response rating: 0
Surinam grass; [13]
  B. signalgrass plant response rating: 0
Surinam grass; Rate 500 g/ha, Postemergence, scale of 0 to 10 where 0 is no effect and 10 is complete control
  B. signalgrass plant response rating: 0
bedstraw; [8]
  Bedstraw plant response rating: 0
bedstraw; [9]
  Bedstraw plant response rating: 0
bedstraw; [10]
  Plant response rating, Bedstraw: 0
bedstraw; [11]
  Plant response rating, Bedstraw: 0
bedstraw; [2]
  Plant response rating, Bedstraw: 0
bedstraw; [12]
  Bedstraw plant response rating: 0
bedstraw; [13]
  Bedstraw plant response rating: 0

## Cc1noc(C)c1-n1c(=O)on(C(=O)N(c2ccc(F)cc2)C(C)C)c1=O [Compound 155]
Smallflower flatsedge; Postemergence (flood test species), Rate 125 g/ha, scale of 0 to 10 where 0 is no effect and 10 is complete control
  S. Flatsedge plant response rating: 0
Smallflower flatsedge; Rate 62 g/ha, Postemergence section, flood test species, scale of 0 to 10 where 0 is no effect and 10 is complete control
  S. Flatsedge plant response rating: 0
Smallflower flatsedge; Rate 250 g/ha, Postemergence (flood test), scale 0 to 10, 0 is no effect, 10 is complete control
  Plant response rating, S. Flatsedge: 0
blackgrass; [14]
  Blackgrass plant response rating: 0
blackgrass; [15]
  Blackgrass plant response rating: 0
blackgrass; [16]
  Blackgrass plant response rating: 0
blackgrass; [17]
  Blackgrass plant response rating (0 to 10 scale): 0
blackgrass; [18]
  Blackgrass plant response rating: 2
blackgrass; [19]
  Blackgrass plant response rating: 0
blackgrass; [20]
  Blackgrass plant response rating: 0
blackgrass; [21]
  Plant response rating, Blackgrass: 2
Surinam grass; [14]
  B. signalgrass plant response rating: 0
Surinam grass; [15]
  B. signalgrass plant response rating: 0
Surinam grass; [16]
  B. signalgrass plant response rating: 0
Surinam grass; [17]
  B. signalgrass plant response rating (0 to 10 scale): 0
Surinam grass; [18]
  B. signalgrass plant response rating: 0
Surinam grass; [19]
  B. signalgrass plant response rating: 0
Surinam grass; [20]
  B. signalgrass plant response rating: 0
Surinam grass; [21]
  Plant response rating, B. signalgrass: 0
bedstraw; [14]
  Bedstraw plant response rating: 0
bedstraw; [15]
  Bedstraw plant response rating: 0
bedstraw; [16]
  Bedstraw plant response rating: 0
bedstraw; [17]
  Bedstraw plant response rating (0 to 10 scale): 0
bedstraw; [18]
  Bedstraw plant response rating: 0
bedstraw; [19]
  Bedstraw plant response rating: 0
bedstraw; [20]
  Bedstraw plant response rating: 0
bedstraw; [21]
  Plant response rating, Bedstraw: 0
